Laboratory results: ChEMBL document CHEMBL1133559, “4-Aryl-2,4-dioxobutanoic acid inhibitors of HIV-1 integrase and viral replication in cells” (J Med Chem, 2000)
Values joined by “and” are separate entries in the source; they are usually repeats but may differ in a detail not shown here. Equal entries are not always repeated.

Columns and labels:
[1] = system: Human immunodeficiency virus 1; experiment: In vitro inhibition of (HIV-1 IIIB) replication.; format: functional; details: for IC95: Human immunodeficiency virus 1, read-out: CIC95
[2] = target: T1, Human immunodeficiency virus type 1 integrase (Human immunodeficiency virus 1, UniProt Q7ZJM1)
T1 sequence (Q7ZJM1 whole entry): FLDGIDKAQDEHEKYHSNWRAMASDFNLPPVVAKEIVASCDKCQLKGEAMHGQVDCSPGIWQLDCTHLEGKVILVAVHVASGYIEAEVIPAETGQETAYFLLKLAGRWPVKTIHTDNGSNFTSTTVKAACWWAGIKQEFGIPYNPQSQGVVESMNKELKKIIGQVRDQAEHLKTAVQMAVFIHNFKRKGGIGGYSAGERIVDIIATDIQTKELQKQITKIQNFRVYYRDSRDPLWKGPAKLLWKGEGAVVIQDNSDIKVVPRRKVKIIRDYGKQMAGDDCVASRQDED
Description: Inhibition of recombinant HIV-1 Integrase in strand transfer enzyme assay.

[3] = target: T1, Human immunodeficiency virus type 1 integrase; experiment: Inhibitory activity was determined against recombinant HIV-1 Integrase (0.1 uM) in strand transfer enzyme assay

SMILES	IC95 [1]	IC50 [2]	CIC95 [1]	IC50 [3]
CC(C)(C)NC(=O)[C@@H]1CN(Cc2cccnc2)CCN1C[C@@H](O)C[C@@H](Cc1ccccc1)C(=O)N[C@H]1c2ccccc2C[C@H]1O [INDINAVIR]	55 nM			
O=C(O)C(=O)CC(=O)c1cccc(Cc2ccccc2Cl)c1	620 nM	< 100 nM		
CCOc1ccc(Cc2ccccc2)cc1C(=O)CC(=O)C(=O)O	150 nM	< 100 nM	0.25 µM	
O=C(O)C(=O)CC(=O)c1cccc(Cc2ccc(Cl)cc2)c1	25000 nM	1000 nM and 500 nM		
COc1ccc(Cc2ccccc2)cc1C(=O)CC(=O)C(=O)O	620 nM	< 100 nM		
O=C(O)C(=O)CC(=O)c1cccc(Cc2cccc(F)c2)c1	2080 nM	250 nM		
O=C(O)C(=O)CC(=O)c1cccc(Cc2cccc(Cl)c2)c1	940 nM	< 100 nM		
O=C(O)C(=O)CC(=O)c1ccn(Cc2ccccc2)c1	3000 nM	500 nM and 600 nM		
O=C(O)C(=O)CC(=O)c1cccc(Cc2ccccc2F)c1	520 nM	< 100 nM		
O=C(O)C(=O)CC(=O)c1csc(Cc2ccccc2)c1	2500 nM	160 nM and 100 nM		
O=C(O)C(=O)CC(=O)c1ccsc1Cc1ccccc1	25000 nM	180 nM		
CC(C)Oc1ccc(Cc2ccccc2)cc1C(=O)CC(=O)C(=O)O	100 nM			< 100 nM
O=C(O)C(=O)CC(=O)c1cccn1Cc1ccccc1	41600 nM	220 nM		
COc1cc(Cc2ccccc2)cc(C(=O)CC(=O)C(=O)O)c1	2080 nM	140 nM		
COc1ccc(C(=O)CC(=O)C(=O)O)cc1Cc1ccccc1	1830 nM	150 nM		
O=C(O)C(=O)CC(=O)c1cccn1Cc1ccc(F)cc1	9600 nM			
O=C(O)C(=O)CC(=O)c1cccc(Cc2ccccc2)c1	1110 nM	< 100 nM		
O=C(O)C(=O)CC(=O)c1ccccc1Cc1ccccc1	> 50000 nM	5670 nM		
O=C(O)C(=O)CC(=O)c1ccc(Cc2ccccc2)s1	12500 nM	500 nM		
O=C(O)C(=O)CC(=O)c1cccc(Cc2ccc(F)cc2)c1	690 nM	< 100 nM		
